# Measured values: EP2792360A1, “(1aR,12bS)-8-cyclohexyl-11-fluoro-N-((1-methylcyclopropyl)sulfonyl)-1a-((3-methyl-3,8-diazabicyclo[3.2.1]oct-8-yl)carbonyl)-1,1a,2,2b-tetrahydrocyclopropa[d]indolo[2,1-a][2]benzazepine-5-carboxamide for use in treating HCV” (IP Gesellschaft für Management mbH, priority 2013, dated 2014)
# Columns and labels:
# physchem = assay: physchem
# Experimental: Anal. Chem. Instrum. […] Drug Delivery Rev. […] The binding constant (K) of the gamma-CD inclusion complex ({drug4g}) was calculated from the initial straight line portion of the phase solubility diagram by linear regression, according to the following equation [T. Higuchi et al., Adv. Anal. Chem. Instrum.
# [1] = Biopharmaceutical classification system (BCS); assay type: physicochemical
# From the text: The compound of formula (IV), its manufacture, its pharmacological activity as inverse agonists of the GABA A a5 receptor, and its use for the treatment, prevention and/or delay of progression of various central nervous system (CNS) conditions have been described in WO 2009/071476. […] Res. (1995) 12:413-420]. […] If anhydrous solid forms of the compound of formula (IV), as described in WO 2009/071476, are selected for clinical development, a physical instability in terms of hydrate formation during pharmaceutical processing and/or storage of the drug product is possible. […] Further, the discovery of new solid forms of an API (polymorphs, solvates, salts, inclusion complexes) enlarges the repertoire of materials that a formulation scientist has available with which to design a pharmaceutical dosage form of a drug with a targeted release profile or other desired characteristics. Therefore, there is a need to find more solid forms of the compound of formula (IV). […] The instant invention provides novel solid forms of the compound of formula (IV) with improved solubility, dissolution rate, oral bioavailability as well as increased stability of the API. In addition, the instant invention provides novel inclusion complexes of compounds of formula (IV) with cyclodextrins. Such inclusion complexes further feature improved dissolution rate and bioavailability. […]
# [2] = Solid form stability of forms of compound of formula (IV) (Temperature / Humidity Controlled XRPD, storage, suspension); assay type: physicochemical
# Experimental: The term"XRPD" denotes the analytical method of X-Ray Powder Diffraction. XRPD patterns were recorded at ambient conditions in transmission geometry with a STOE STADI P diffractometer (Cu K alpha radiation source, primary monochromator, position sensitive detector, angular range 3° to 42° 2Theta, approximately 60 minutes total measurement time). The repeatability of the angular values is in the range of 2Theta ±0.2°. The term "approximately" given in combination with an angular value denotes the repeatability which is in the range of 2Theta ±0.2°. The samples were prepared and analyzed without further processing (e.g. grinding or sieving) of the substance. The relative XRPD peak intensity is dependent upon many factors such as structure factor, temperature factor, crystallinity, polarization factor, multiplicity, and Lorentz factor. Relative intensities may vary considerably from one measurement to another due to preferred orientation effects. Humidity Controlled XRPD analyses were performed in reflection geometry with a Siemens D5000 Diffractometer (Cu radiation source, Ni K beta filter, Scintillation detector, angular range 3° to 42° 2Theta, approximately 180 minutes total measurement time per humidity level). The diffractometer is equipped with an MRI (Materials Research Instruments) humidity chamber. The humidity within the chamber is adjusted with an ANSYCO humidity controller (SYCOS H-HOT). For single crystal structure analysis a single crystal sample was mounted in a nylon loop on a goniometer and measured at ambient conditions. Alternatively, the crystal was cooled in a nitrogen stream during measurement. Data were collected on a GEMINI R Ultra diffractometer from Oxford Diffraction. Cu-radiation of 1.54 A wavelength was used for data collection. Data was processed with the Oxford Diffraction CRYSALIS software. The crystal structure was solved and refined with standard crystallographic software. In this case the program ShelXTL from Bruker AXS (Karlsruhe) was used. The abbreviation "FWHM" denotes the full width at half maximum, which is a width of a peak (e.g. appearing in a spectrum, particularly in an XRPD pattern) at its half height. The term "sharp Bragg diffraction peak" in connection with X-ray diffraction patterns denotes a peak which is observed if Bragg' s law of diffraction is fulfilled. Generally, the FWHM of a sharp Bragg diffraction peak is less than 0.5° 2-theta. The term "amorphous halo" in connection with X-ray diffraction patterns denotes an approximately bell- shaped diffraction maximum in the X-ray powder diffraction pattern of an amorphous material. The FWHM of an amorphous halo is on principle larger than the FWHM of the peak of crystalline material. The terms "FTIR" and "IR" denote the analytical method of infrared spectroscopy. The IR-spectra of the samples are recorded as film of a Nujol suspension consisting of approx. 5 mg of sample and approx. 5 mg of Nujol (mineral oil) between two sodium chloride plates (cross section 13 mm) in transmittance with a FTIR- spectrometer. The spectra were recorded in spectral range between 4000 cm"1 and 600 cm"1, resolution 2 cm"1, and 300 coadded scans on a Magna 860 (thermo/Nicolet) equipped with a DTGS detector. The term "Raman" denotes the analytical method of Raman spectroscopy. For recording Raman spectra, the samples were spread on a glass slide. Raman spectra were recorded in the range of 150-3800 cm"1 with an ARAMIS (HoribaJobinYvon) Raman microscope equipped with a Peltier cooled CCD detector, at excitation of 633 nm, a 1200 1/mm grating, a x50 objective and with 3 exposures of 3s, or 7s for weak Raman scatterers. The term "DSC" denotes the analytical method of Differential Scanning Calorimetry. DSC thermograms were recorded using a Mettler-Toledo™ differential scanning calorimeter DSC820, DSC821 or DSC1 with a FRS05 sensor. […]
# [3] = Hygroscopicity of solid forms of compound of formula (IV) (Ph. Eur. classification); assay type: physicochemical
# Experimental: For the thermogravimetric analyses, approx. 5 - 10 mg of sample were placed in aluminum pans, accurately weighed and hermetically closed with perforation lids. […] The samples were then heated under a flow of nitrogen of about 50 mL/min using a heating rate of 5 K/min. The term "micronization" denotes a process whereby the particle size of a solid material is diminished to a d50 value of less than IOµm by the aid of a suitable method, such as milling, bashing or grinding. […] The term "anti-solvent crystallization" denotes a process wherein supers aturation and as a result thereof crystallisation is achieved by addition of an antisolvent to the product solution. The term "ambient conditions" denotes conditions as experienced in a standard laboratory, e.g. atmospheric pressure, air, ambient temperature between 18 °C and 28 °C, humidity between 30 %rH and 80 %rH. The term "hygroscopicity" describes the ability of a solid material to adsorb moisture. The hygroscopicity of a given API is characterized [European Pharmacopoeia - 6th Edition (2008), Chapter 5.11) by the increase in mass when the relative humidity is raised from 0 %rH to 90 %rH: o non-hygroscopic: weight increase Am < 0.2%; o slightly hygroscopic: weight increase 0.2% < Am < 2.0%; o hygroscopic: weight increase 2.0% < Am < 15.0%; o very hygroscopic: weight increase Am > 15.0%; o deliquescent: sufficient water is adsorbed to form a liquid. The IUPAC lamda convention (W.H. Powell, Pure & Appl. Chem. […] The bonding number "n" of a heteroatom is the sum of the total number of valence bonds to adjacent atoms, if any, and the number of attached hydrogen atoms. The bonding number of a heteroatom is standard when it has the value given in the following table: n=4: C, Si, Ge, Sn, Pb; n=3 B, N, P, As, Sb, Bi, n=2: O, S, Se, Te, Po; n=l; F, CI, Br, I, At. A nonstandard bonding number of a (neutral) heteroatom is indicated by the symbol "λη", where "n" is the bonding number. […]
smiles,measurement,setting,value
"Cc1onc(-c2ccc(F)cc2)c1COc1ccc(C(=O)N2CCS(=O)(=O)CC2)cn1 [compound of formula (IV), (1,1-dioxo-1lambda6-thiomorpholin-4-yl)-{6-[3-(4-fluoro-phenyl)-5-methyl-isoxazol-4-ylmethoxy]-pyridin-3-yl]-methanone]",type of phase solubility diagram with gamma-cyclodextrin,physchem,Bs-type behavior
same,aqueous solubility,[1],low aqueous solubility
same,biopharmaceutical classification,[1],BCS 2
OC[C@H]1O[C@@H]2O[C@H]3[C@H](O)[C@@H](O)[C@@H](O[C@H]4[C@H](O)[C@@H](O)[C@@H](O[C@H]5[C@H](O)[C@@H](O)[C@@H](O[C@H]6[C@H](O)[C@@H](O)[C@@H](O[C@H]7[C@H](O)[C@@H](O)[C@@H](O[C@H]8[C@H](O)[C@@H](O)[C@@H](O[C@H]9[C@H](O)[C@@H](O)[C@@H](O[C@H]1[C@H](O)[C@H]2O)O[C@@H]9CO)O[C@@H]8CO)O[C@@H]7CO)O[C@@H]6CO)O[C@@H]5CO)O[C@@H]4CO)O[C@@H]3CO [gamma-cyclodextrin],solubility,physchem; water,150 mM
"Cc1onc(-c2ccc(F)cc2)c1COc1ccc(C(=O)N2CCS(=O)(=O)CC2)cn1 [Amorphous Form ({drug4f}), (1,1-dioxo-1lambda6-thiomorpholin-4-yl)-{6-[3-(4-fluoro-phenyl)-5-methyl-isoxazol-4-ylmethoxy]-pyridin-3-yl]-methanone]",phase change upon storage at 100 rH at ambient temperature,"[2]; Form C: prolonged period, e.g. 30 days",no phase transformation has been observed
same,hygroscopicity,[3],slightly hygroscopic (slightly hygroscopic: weight increase 0.2% < Am < 2.0%)
"Cc1onc(-c2ccc(F)cc2)c1COc1ccc(C(=O)N2CCS(=O)(=O)CC2)cn1.O [Form B ({drug4b}), (1,1-dioxo-1lambda6-thiomorpholin-4-yl)-{6-[3-(4-fluoro-phenyl)-5-methyl-isoxazol-4-ylmethoxy]-pyridin-3-yl]-methanone monohydrate]",heating temperature at which the form transforms into Form A,[2],> 100 °C
same,stability as compared to Form A,"[2]; in the presence of humidity, e.g. at ambient conditions",substantially increased
same,hygroscopicity,[3],hygroscopic (hygroscopic: weight increase 2.0% < Am < 15.0%)
